Test results from ChEMBL document CHEMBL1144820, “Bipinnatins K-Q, minor cembrane-type diterpenes from the West Indian Gorgonian Pseudopterogorgia kallos: isolation, structure assignment, and evaluation of biological activities” (J Nat Prod, 2008).

What was measured:
[1] = Inhibition of Aplysia californica nicotinic acetylcholine receptor
Plasmodium falciparum = experiment: Antimicrobial activity against chloroquine-resistant Plasmodium falciparum; type: functional, organism-based
CCRF-CEM = experiment: Cytotoxicity against human CCRF-CEM cells; type: functional
SR = experiment: Cytotoxicity against human SR cells; type: functional
MOLT-4 = experiment: Cytotoxicity against human MOLT4 cells; type: functional
RPMI-8226 = experiment: Cytotoxicity against human RPMI8226 cells; type: functional
[2] = tested on: Mycobacterium tuberculosis; experiment: Antimicrobial activity against Mycobacterium tuberculosis H37Rv at 128 ug/ml; type: functional

**Q.** For `C=C(C=O)[C@H]1CC2=C(C(=O)OC)C=C(O2)[C@H]2O[C@]2(C)C[C@@H]2OC(=O)[C@]3(O[C@@H]23)[C@H](OC(C)=O)C1` [BIPINNATIN E], which IC50 [1] is on record?
**A.** 0.23 µM

**Q.** For `C=C(C)[C@@H]1CCC2=C[C@H](C[C@@]3(C)O[C@@H]3[C@]3(O)C=C(C)C(=O)[C@H]1O3)OC2=O` [BIPINNATIN N], which IC50 (Plasmodium falciparum) is on record?
**A.** > 10 µg/mL

**Q.** For `C=C(C=O)[C@H]1CC(=O)[C@@H](C(=O)OC)[C@@H]2O[C@@](C)(CC2=O)C[C@@H]2OC(=O)[C@]3(O[C@@H]23)[C@@H](OC(C)=O)C1` [BIPINNATIN Q], which IC50 (Plasmodium falciparum) is on record?
**A.** > 10 µg/mL

**Q.** And the GI50 (CCRF-CEM)?
**A.** 5.8 µM

**Q.** And the GI50 (SR)?
**A.** 2.6 µM

**Q.** And the GI50 (MOLT-4)?
**A.** 4.2 µM

**Q.** And the GI50 (RPMI-8226)?
**A.** 4.1 µM

**Q.** Which inhibition at 128 µg/mL [2] does the source give for `C=C(C(=O)OC)[C@@H]1C[C@@H](OC(C)=O)C2=C[C@H](C[C@@]3(C)O[C@@H]3[C@@]3(O)C=C(C)[C@](O)(O3)[C@H]1OC(C)=O)OC2=O` [BIPINNATIN M] here?
**A.** 20%

**Q.** And the IC50 (Plasmodium falciparum)?
**A.** > 10 µg/mL
